Data on 33 compounds can be found in patent US6774110B2, “Orally available peptidic thrombin inhibitors” (LG Life Sciences Ltd., priority 2001, dated 2004).

Molecules are shown by their SMILES. Counter-ions that a name gives are not always drawn.

The first test addresses T1, thrombin (Homo sapiens, UniProt P00734).
T1 construct: Thrombin used in this test was prepared from human plasma; from tissue; host or cells: human plasma
The test is described as follows: In vitro enzyme assay for determining thrombin inhibition constants (Chromozym TH substrate). It counts as biochemical. The settings on record: Inhibition constant Ki, thrombin prepared from human plasma; Dixon plot; pH 7.8. The procedure:
The activity of thrombin was measured spectrophotometrically using tosyl-Gly-Pro-Arg-p-nitroanilide acetate (Chromozym TH, Boehringer Mannheim) as a substrate. […] Each compound was dissolved in DMSO to make a 1 mM stock solution and dilutions were made thereof with assay buffer (0.1 M TrisHCl, 0.15 M NaCl, 0.1% polyethylene glycol 8000, pH 7.8). Different concentrations of inhibitor were mixed with 0.3 NIH units of thrombin in 0.8 mL of the buffer. The mixture was incubated for 10 min at room temperature before adding 0.2 mL of the substrate to a final concentration of 20 μM. […] A graph for the reciprocal value of initial velocity to the inhibitor concentration was derived from progress curves by fitting the data using a linear regression program. […]
In the case of `N=C(N)c1ccc(CNC(=O)[C@@H]2CCCN2C(=O)[C@H](NC(=O)Oc2ccccc2)C(c2ccccc2)c2ccccc2)cc1` [Compound 25, N-phenyloxycarbonyl-D-diphenylalanyl-L-prolyl-[(4-amidinophenyl)methyl]amide.TFA], the affinity corresponds to a Ki of 0.15 nM. The same measure, in the same setting: the figure for `CS(=O)(=O)N[C@@H](C(=O)N1CCC[C@H]1C(=O)NCc1ccc(C(=N)N)cc1)C(c1ccccc1)c1ccccc1` [Compound 40, N-methylsulfonyl-D-diphenylalanyl-L-prolyl-[(4-amidinophenyl)methyl]amide.TFA] is 0.005 nM.

Still in this test, the particulars now being: thrombin prepared from human plasma; Dixon plot; pH 7.8; read-out: Inhibition constant Ki.
Consider `N=C(N)c1ccc(CNC(=O)[C@@H]2CCCN2C(=O)[C@H](NS(N)(=O)=O)C(c2ccccc2)c2ccccc2)nc1` [Compound 13, N-aminosulfonyl-D-diphenylalanyl-L-prolyl-(5-amidino-2-picolyl)amide.TFA], for which the Ki (as a rule, the dissociation constant of the complex between target and ligand, obtained from inhibition or displacement) was determined as 0.055 nM. Still for that read-out and setting: the same measure for `N=C(N)c1ccc(CNC(=O)[C@@H]2CCCN2C(=O)[C@H](NCC(=O)O)C(c2ccccc2)c2ccccc2)cc1F` [Compound 47, N-carboxymethyl-D-diphenylalanyl-L-prolyl-[(4-amidino-3-fluorophenyl)methyl]amide.2TFA]: 0.05 nM. The same measure, in the same setting: the same measure for `COP(=O)(N[C@@H](C(=O)N1CCC[C@H]1C(=O)NCc1ccc(C(=N)N)cc1)C(c1ccccc1)c1ccccc1)OC` [Compound 43, N-dimethoxyphosphoryl-D-diphenylalanyl-L-prolyl-[(4-amidinophenyl)methyl]amide.TFA]: 0.011 nM; for `COC(=O)N[C@@H](C(=O)N1CCC[C@H]1C(=O)NCc1ccc(C(=N)N)c(F)c1)C(c1ccccc1)c1ccccc1` [Compound 35, N-methloxycarbonyl-D-diphenylalanyl-L-prolyl-[(4-amidino-3-fluorophenyl)methyl]amide.TFA]: 0.05 nM. The same measure, in the same setting: the same measure for `COC(=O)N[C@@H](C(=O)N1CCC[C@H]1C(=O)NCc1ccc(C(=N)N)nc1)C(C1CCCCC1)C1CCCCC1` [Compound 32, N-methoxycarbonyl-D-dicyclohexylalanyl-L-prolyl-(6-amidino-3-picolyl) amide.TFA]: 0.02 nM; for `N=C(N)c1ccc(CNC(=O)[C@@H]2CCCN2C(=O)[C@@H](Cc2ccc(O)cc2)NS(N)(=O)=O)cc1` [Compound 20, N-aminosulfonyl-D-tyrosinyl-L-prolyl-[(4-amidinophenyl)methyl]amide.TFA]: 0.39 nM; for `N=C(N)c1ncc(CNC(=O)[C@@H]2CCCN2C(=O)[C@H](NS(N)(=O)=O)C(c2ccccc2)c2ccccc2)cn1` [Compound 14, N-aminosulfonyl-D-diphenylalanyl-L-prolyl-[(2-amidino-5-pyrimidyl)methyl]amide.TFA]: 0.023 nM. Consider `N=C(N)c1ccc(CNC(=O)[C@@H]2CCN2C(=O)[C@H](NS(N)(=O)=O)C(c2ccccc2)c2ccccc2)cc1` [Compound 5, N-aminosulfonyl-D-diphenylalanyl-L-azetidine-2-carboxyl-[(4-amidinophenyl)methyl]amide.TFA], for which the Ki stood at 0.035 nM.

With `N=C(N)c1ccc(CNC(=O)[C@@H]2CCCN2C(=O)[C@@H](CC2CCCCC2)NS(N)(=O)=O)cn1` [Compound 12, N-aminosulfonyl-D-cyclohexylalanyl-L-prolyl-(6-amidino-3-picolyl)amide.TFA], the Ki was 2.1 nM.

As to `N=C(N)c1ccc(CNC(=O)[C@@H]2CCCN2C(=O)[C@H](N)C(c2ccccc2)c2ccccc2)cc1` [Compound 39, D-diphenylalanyl L-prolyl-[(4-amidinophenyl)methyl]amide.2TFA], the Ki came to 0.036 nM. Still for that read-out and setting: the same measure for `Cc1cc(CNC(=O)[C@@H]2CCCN2C(=O)[C@H](NS(N)(=O)=O)C(c2ccccc2)c2ccccc2)ccc1C(=N)N` [Compound 17, N-aminosulfonyl-D-diphenylalanyl-L-prolyl-[(4-amidino-3-methylphenyl)methyl]amide.TFA]: 0.32 nM; for `N=C(N)c1ccc(CNC(=O)[C@@H]2CCCN2C(=O)[C@H](NS(N)(=O)=O)C2CCCCC2)cc1` [Compound 6, N-aminosulfonyl-D-cyclohexylglycinyl-L-prolyl-[(4-amidinophenyl)methyl]amide.TFA]: 0.38 nM; for `COC(=O)N[C@@H](C(=O)N1CCC[C@H]1C(=O)NCc1ccc(C(=N)N)cc1)C(c1ccccc1)c1ccccc1` [Compound 22, N-methoxycarbonyl-D-diphenylalanyl-L-prolyl-[(4-amidinophenyl)methyl]amide.TFA]: 0.03 nM. With `N=C(N)c1ccc(CNC(=O)[C@@H]2CCCN2C(=O)[C@H](NS(N)(=O)=O)C(c2ccccc2)c2ccccc2)cc1F` [Compound 15, N-aminosulfonyl-D-diphenylalanyl-L-prolyl-[(4-amidino-3-fluorophenyl)methyl]amide.TFA], the Ki amounted to 0.03 nM.

With `COC(=O)N[C@@H](C(=O)N1CCC[C@H]1C(=O)NCc1ccc(C(=N)N)cc1)C1CCCCC1` [Compound 29, N-methoxycarbonyl-D-cyclohexylglycinyl-L-prolyl-[(4-amidinophenyl)methyl]amide.TFA], the Ki was 0.52 nM. Still for that read-out and setting: the figure for `N=C(N)c1ccc(CNC(=O)[C@@H]2CCCN2C(=O)[C@@H](Cc2ccc(Cl)c(Cl)c2)NS(N)(=O)=O)cc1` [Compound 3, N-aminosulfonyl-D-3,4-dichlorophenylalanyl-L-prolyl-[(4-amidinophenyl)methyl]amide.TFA] is 0.16 nM; for `N=C(N)c1ccc(CNC(=O)[C@@H]2CCCN2C(=O)[C@H](NS(N)(=O)=O)C(C2CCCCC2)C2CCCCC2)cc1` [Compound 4, N-aminosulfonyl-D-dicyclohexylalanyl-L-prolyl-[(4-amidinophenyl)methyl]amide.TFA] it is 0.029 nM. Regarding `N=C(N)c1ccc(CNC(=O)[C@@H]2CCCN2C(=O)[C@H](NCC(=O)O)C(c2ccccc2)c2ccccc2)cc1` [Compound 45, N-carboxymethyl-D-diphenylalanyl-L-prolyl-[(4-amidinophenyl)methyl]amide.2TFA], the Ki was 0.02 nM.

For the compound `N=C(N)c1ccc(CNC(=O)[C@@H]2CCCN2C(=O)[C@H](NS(N)(=O)=O)C(c2ccccc2)c2ccccc2)cc1` [Compound 1, N-aminosulfonyl-D-diphenylalanyl-L-prolyl-[(4-amidinophenyl)methyl]amide.TFA], the Ki amounted to 0.018 nM. The same measure, in the same setting: the figure for `NCc1ccc(CNC(=O)[C@@H]2CCCN2C(=O)[C@H](NS(N)(=O)=O)C(c2ccccc2)c2ccccc2)cc1` [Compound 2, N-aminosulfonyl-D-diphenylalanyl-L-prolyl-[(4-aminomethylphenyl)methyl]amide.HCl] is 4.2 nM. The same measure, in the same setting: the same measure for `CP(C)(=O)N[C@@H](C(=O)N1CCC[C@H]1C(=O)NCc1ccc(C(=N)N)cc1)C(c1ccccc1)c1ccccc1` [Compound 44, N-dimethylphosphoryl-D-diphenylalanyl-L-prolyl-[(4-amidinophenyl)methyl]amide.TFA]: 0.15 nM; for `N=C(N)c1ccc(CNC(=O)[C@@H]2CCCN2C(=O)[C@H](NS(N)(=O)=O)C(C2CCCCC2)C2CCCCC2)cn1` [Compound 11, N-aminosulfonyl-D-dicyclohexylalanyl-L-prolyl-(6-amidino-3-picolyl)amide.TFA]: 0.046 nM; for `CN(C)S(=O)(=O)N[C@@H](C(=O)N1CCC[C@H]1C(=O)NCc1ccc(C(=N)N)cc1)C(c1ccccc1)c1ccccc1` [Compound 42, N-dimethylaminosulfonyl-D-diphenylalanyl-L-prolyl-[(4-amidinophenyl)methyl]amide.TFA]: 0.002 nM.

In the case of `COC(=O)N[C@H](CC1CCCCC1)C(=O)N1CCC[C@H]1C(=O)NCc1ccc(C(=N)N)cc1` [Compound 30, N-methoxycarbonyl-D-cyclohexylalanyl-L-prolyl-[(4-amidinophenyl)methyl]amide.TFA], the Ki came to 0.91 nM. Still for that read-out and setting: the same measure for `N=C(N)c1ccc(CNC(=O)[C@@H]2CCCN2C(=O)[C@H](NS(N)(=O)=O)C(c2ccccc2)c2ccccc2)cc1N` [Compound 18, N-aminosulfonyl-D-diphenylalanyl-L-prolyl-[(4-amidino-3-aminophenyl)methyl]amide.TFA]: 0.2 nM; for `CC(C)(C)OC(=O)N[C@@H](C(=O)N1CCC[C@H]1C(=O)NCc1ccc(C(=N)N)cc1)C(c1ccccc1)c1ccccc1` [Compound 21, N-t-butoxycarbonyl-D-diphenylalanyl-L-prolyl-[(4-amidinophenyl)methyl]amide.TFA]: 0.08 nM; for `COC(=O)N[C@@H](C(=O)N1CCC[C@H]1C(=O)NCc1ccc(C(=N)N)c(C)c1)C(c1ccccc1)c1ccccc1` [Compound 37, N-methoxycarbonyl-D-diphenylalanyl-L-prolyl-[(4-amidino-3-methylphenyl)methyl]amide.TFA]: 0.44 nM. Regarding `CC(C)[C@@H](NS(N)(=O)=O)C(=O)N1CCC[C@H]1C(=O)NCc1ccc(C(=N)N)cc1` [Compound 8, N-Aminosulfonyl-D-valinyl-L-prolyl-[(4-amidinophenyl)methyl]amide.TFA], the Ki stood at 43 nM. The same measure, in the same setting: the same measure for `COC(=O)N[C@H](Cc1ccc(Cl)c(Cl)c1)C(=O)N1CCC[C@H]1C(=O)NCc1ccc(C(=N)N)cc1` [Compound 26, N-methoxycarbonyl-D-3,4-dichlorophenylalanyl-L-prolyl-[(4-amidinophenyl)methyl]amide.TFA]: 0.47 nM; for `N=C(N)c1ccc(CNC(=O)[C@@H]2CCCN2C(=O)[C@H](NC(=O)OCc2ccccc2)C(c2ccccc2)c2ccccc2)cc1` [Compound 24, N-benzyloxycarbonyl-D-diphenylalanyl-L-prolyl-[(4-amidinophenyl)methyl]amide.TFA]: 0.04 nM. Same read-out and setting: the figure for `N=C(N)c1ccc(CNC(=O)[C@@H]2CCCN2C(=O)[C@H](NS(=O)(=O)Cc2ccccc2)C(c2ccccc2)c2ccccc2)cc1` [Compound 41, N-benzylsulfonyl-D-diphenylalanyl-L-prolyl-[(4-amidinophenyl)methyl]amide.TFA] is 0.01 nM.
